Reference: patent US9139581B2 (PORTOLA PHARMACEUTICALS, INC., priority 2008, dated 2015)
pIC50: −log10 of the molar value.

How the values were obtained:
[1] = tested on: SUDHL-4 and SUDHL-6 cells; conditions: Chen, Monti et al. 2008; cited from earlier work
[2] = tested on: Toledo and Karpas-422 cell lines; conditions: Chen, Monti et al. 2008; cited from earlier work
JAK1 = target: T1, JAK1 (Homo sapiens, UniProt P23458); experiment: Millipore Upstate KinaseProfiler screening, JAK1 catalytic activity; format: biochemical; conditions: Table 5; read-out: Inhibition (IC50%) of catalytic activity of JAK 1
T1 construct: purchased Millipore Upstate KinaseProfiler

JAK2 = target: T2, JAK2 (Homo sapiens, UniProt O60674); experiment: Millipore Upstate KinaseProfiler screening, JAK2 catalytic activity; format: biochemical; conditions: Table 5; read-out: Inhibition (IC50%) of catalytic activity of JAK 2
T2 construct: purchased Millipore Upstate KinaseProfiler

Purified human JAK3 = target: T3, Purified human JAK3 (Homo sapiens, UniProt P52333); experiment: Millipore Upstate KinaseProfiler screening, JAK3 catalytic activity; format: biochemical; conditions: for pIC50: Table 5, read-out: Inhibition (IC50%) of catalytic activity of JAK 3; for inhibition at 0.3 µM: 0.3 μM compound
T3 construct: purchased Millipore Upstate KinaseProfiler; host or cells: insect cells
Method: This assay is a direct measurement of the effect of compound on the catalytic activity of JAK3. Purified human JAK3 (GenBank AF513860) sequence (residue 781-C terminus) was obtained from insect cells. The catalytic hydrolysis of ATP is measured using a radiometric filter binding method. Incubation of kinase with ^33-[P]ATP and substrate leads to incorporation of ^33[P] into the substrate which can then be separated from the other reaction components by filtration. Assays were performed using 10 μM ATP and in the absence or presence of 1, 0.3, or 0.1 μM compound. Activity was expressed as % of inhibition of control.
In the table below, activity in the Jak assays is provided as follows: +++++=IC50<0.0010 μM; ++++=0.0010 μM<IC50<0.010 μM, +++=0.010 μM<IC50<0.10 μM, ++=0.10 μM<IC50<1 μM, +=IC50>1 μM.

SUDHL-6 and Toledo cells = experiment: Caspase 3 apoptosis assay; format: cell-based, human; conditions: 1 μM, 72 h treatment
Method: Induction of apoptosis in non-Hodgkin's lymphoma B cell lines SUDHL-4, SUDHL-6, and Toledo was assessed by measuring the apoptotis marker Caspase 3. Cells were incubated with 1, 3, or 10 μM compound for 24, 48, and 72 hours. At the conclusion of each time point, cells were processed for flow cytometry analysis using the Monoclonal Rabbit Anti-Active Caspase-3 Antibody Kit and related protocols (BD Pharmingen). Data from two independent experiments are presented in Tables 5A and 5B, representing the percent of total cells undergoing apoptosis following incubation with compounds under the indicated conditions.
Induction of apoptosis was measured using the PE-conjugated monoclonal active caspase-3 antibody apoptosis kit (Becton Dickenson) following the supplied protocol. Cells were suspended in growth media (0.5×10^6 cells/ml) and treated with the indicated concentrations of each Syk inhibitor or vehicle control for 24, 48, or 72 hours prior to FACS analysis. The MTT (3-(4,5-Dimethylthiazol-2-yl)-2,5-diphenyltetrazolium bromide, a tetrazole) assay […] was used as a measure of cell viability and growth, following protocols supplied by the manufacturer. Cells were treated with the indicated concentrations of each Syk inhibitor or vehicle control for 72 hours.
Selective inhibition of Syk was sufficient to induce apoptosis in “BCR-type” NHL cell lines.

T3 sequence (P52333 781-1124 limits assumed): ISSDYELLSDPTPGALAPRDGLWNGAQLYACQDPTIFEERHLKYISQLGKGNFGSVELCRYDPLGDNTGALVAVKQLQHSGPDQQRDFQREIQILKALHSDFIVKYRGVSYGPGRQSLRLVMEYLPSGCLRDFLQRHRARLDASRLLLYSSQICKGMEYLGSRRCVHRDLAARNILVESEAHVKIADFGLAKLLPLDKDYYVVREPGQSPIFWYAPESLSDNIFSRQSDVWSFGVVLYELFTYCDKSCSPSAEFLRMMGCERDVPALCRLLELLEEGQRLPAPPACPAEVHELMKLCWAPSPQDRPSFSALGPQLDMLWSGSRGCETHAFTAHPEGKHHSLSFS
T2 sequence (O60674 whole entry): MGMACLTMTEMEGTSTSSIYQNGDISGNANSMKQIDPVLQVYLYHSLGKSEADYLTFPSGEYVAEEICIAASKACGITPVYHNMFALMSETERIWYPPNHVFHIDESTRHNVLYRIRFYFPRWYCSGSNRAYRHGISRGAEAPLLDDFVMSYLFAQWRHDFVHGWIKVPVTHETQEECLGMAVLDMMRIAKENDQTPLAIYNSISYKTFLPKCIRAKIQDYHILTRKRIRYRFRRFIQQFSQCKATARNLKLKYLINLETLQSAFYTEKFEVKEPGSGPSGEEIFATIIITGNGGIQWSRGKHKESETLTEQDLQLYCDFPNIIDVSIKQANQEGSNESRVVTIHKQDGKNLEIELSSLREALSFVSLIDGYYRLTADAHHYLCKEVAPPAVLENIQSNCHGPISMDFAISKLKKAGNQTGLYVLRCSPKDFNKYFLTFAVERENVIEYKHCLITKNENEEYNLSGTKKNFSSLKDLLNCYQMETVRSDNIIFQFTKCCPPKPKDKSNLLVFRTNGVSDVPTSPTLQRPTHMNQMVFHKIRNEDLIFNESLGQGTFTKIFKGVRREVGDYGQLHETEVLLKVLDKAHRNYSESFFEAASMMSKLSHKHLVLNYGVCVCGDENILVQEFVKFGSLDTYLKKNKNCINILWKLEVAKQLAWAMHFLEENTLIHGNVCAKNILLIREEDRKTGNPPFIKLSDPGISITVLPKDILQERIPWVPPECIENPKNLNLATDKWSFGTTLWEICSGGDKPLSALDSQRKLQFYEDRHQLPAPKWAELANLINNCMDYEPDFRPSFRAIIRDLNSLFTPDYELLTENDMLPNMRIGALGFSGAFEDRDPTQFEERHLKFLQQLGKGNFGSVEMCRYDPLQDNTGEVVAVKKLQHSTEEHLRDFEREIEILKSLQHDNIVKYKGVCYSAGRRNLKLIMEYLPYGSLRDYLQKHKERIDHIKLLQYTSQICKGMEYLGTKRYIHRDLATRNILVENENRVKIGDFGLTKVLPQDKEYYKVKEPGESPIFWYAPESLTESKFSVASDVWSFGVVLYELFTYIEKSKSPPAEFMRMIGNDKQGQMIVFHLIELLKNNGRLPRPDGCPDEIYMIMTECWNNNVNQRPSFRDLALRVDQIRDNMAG
T1 sequence (P23458 whole entry): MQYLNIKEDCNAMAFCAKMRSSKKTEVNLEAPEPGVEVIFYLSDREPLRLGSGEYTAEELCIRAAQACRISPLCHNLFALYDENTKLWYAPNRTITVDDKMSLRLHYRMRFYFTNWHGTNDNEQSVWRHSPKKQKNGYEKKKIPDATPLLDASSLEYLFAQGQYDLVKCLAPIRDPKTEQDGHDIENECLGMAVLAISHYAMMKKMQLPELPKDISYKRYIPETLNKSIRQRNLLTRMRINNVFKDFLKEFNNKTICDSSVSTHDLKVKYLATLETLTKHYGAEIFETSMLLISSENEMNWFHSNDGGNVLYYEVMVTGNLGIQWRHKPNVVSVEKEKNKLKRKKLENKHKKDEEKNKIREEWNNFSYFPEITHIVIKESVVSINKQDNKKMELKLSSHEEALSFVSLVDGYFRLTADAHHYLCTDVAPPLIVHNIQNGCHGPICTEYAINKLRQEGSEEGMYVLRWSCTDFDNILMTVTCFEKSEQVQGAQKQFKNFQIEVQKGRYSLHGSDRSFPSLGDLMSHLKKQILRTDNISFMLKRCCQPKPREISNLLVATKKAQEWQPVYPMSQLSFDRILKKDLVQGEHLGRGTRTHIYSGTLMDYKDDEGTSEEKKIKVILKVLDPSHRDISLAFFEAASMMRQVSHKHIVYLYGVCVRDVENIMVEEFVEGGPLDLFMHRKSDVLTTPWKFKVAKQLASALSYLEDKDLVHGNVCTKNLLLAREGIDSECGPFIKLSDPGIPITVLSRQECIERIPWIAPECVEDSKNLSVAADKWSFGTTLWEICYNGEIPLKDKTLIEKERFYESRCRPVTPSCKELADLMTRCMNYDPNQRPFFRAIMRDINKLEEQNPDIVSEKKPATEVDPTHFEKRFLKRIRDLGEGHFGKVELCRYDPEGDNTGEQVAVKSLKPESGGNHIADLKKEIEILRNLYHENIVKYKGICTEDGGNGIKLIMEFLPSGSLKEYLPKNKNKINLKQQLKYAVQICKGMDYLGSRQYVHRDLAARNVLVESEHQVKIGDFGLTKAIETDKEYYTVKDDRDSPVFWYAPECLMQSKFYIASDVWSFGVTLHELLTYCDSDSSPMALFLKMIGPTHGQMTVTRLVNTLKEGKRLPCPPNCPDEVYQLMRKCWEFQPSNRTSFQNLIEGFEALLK

SMILES | pIC50 (JAK1) | pIC50 (JAK2) | pIC50 (Purified human JAK3) | further results
COc1cc(Nc2ncc(F)c(Nc3ccc4c(n3)NC(=O)C(C)(C)O4)n2)cc(OC)c1OC [Example R406] |  |  |  | Sensitivity to Syk inhibition by R406 [1]: sensitive; Sensitivity to R406 [2]: insensitive
c1cc2c(NC3CC3)nc(Nc3ccc4cn[nH]c4c3)nc2[nH]1 [drawing 213] |  |  |  | inhibition at 0.3 µM (Purified human JAK3; 10 μM ATP): 41%; inhibition at 1 µM (Purified human JAK3; 1 μM compound, 10 μM ATP): 77%
CCCCCCCCCCCCCC(=O)O[C@@H]1[C@@H](C)[C@@]2(O)[C@@H](C=C(CO)C[C@]3(O)C(=O)C(C)=C[C@@H]23)[C@@H]2C(C)(C)[C@]12OC(C)=O [PMA] |  |  |  | Induction of apoptosis (SUDHL-6 and Toledo cells): equally sensitive to induction of apoptosis
CN(C)C(=O)C1CCN(c2ccc(Nc3nc(NC4CC4)c4cc[nH]c4n3)cc2)CC1 |  |  |  | inhibition at 0.3 µM (Purified human JAK3; 10 μM ATP): 82%
c1cc2c(NC3CC3)nc(Nc3ccc4cn[nH]c4c3)nc2[nH]1 [drawing 204] | 6.00 to 7.00 | 6.00 to 7.00 | 6.00 to 7.00 | 
CC(=O)N1CCN(c2ccc(Nc3nc(N4CCC(CN)CC4)c4cc[nH]c4n3)cc2)CC1 [drawing 208] | 6.00 to 7.00 | 6.00 to 7.00 | 6.00 to 7.00 | 
CS(=O)(=O)N1CCN(c2ccc(Nc3nc(Nc4cccc(S(N)(=O)=O)c4)c4cc[nH]c4n3)cc2)CC1 | < 6.00 | 6.00 to 7.00 | 6.00 to 7.00 | 
Cc1c[nH]c2nc(Nc3ccc4cn[nH]c4c3)nc(NC3CCC3)c12 | < 6.00 | 6.00 to 7.00 | 6.00 to 7.00 | 

Continued, in another order:

pIC50 (JAK1) | pIC50 (JAK2) | pIC50 (Purified human JAK3) | SMILES | further results
< 6.00 | < 6.00 | < 6.00 | CC(=O)c1c[nH]c2nc(Nc3ccc4cn[nH]c4c3)nc(NC3CC3)c12 [drawing 207] | 
7.00 to 8.00 | 7.00 to 8.00 | 7.00 to 8.00 | N#Cc1c[nH]c2nc(Nc3ccc4c(c3)CCC(=O)N4)nc(NC3CC3)c12 [drawing 209] | 
7.00 to 8.00 | 7.00 to 8.00 | 7.00 to 8.00 | N#Cc1c[nH]c2nc(Nc3ccc(S(N)(=O)=O)cc3)nc(NC3CC3)c12 [drawing 210] | 
7.00 to 8.00 | 7.00 to 8.00 | 7.00 to 8.00 | N#CCC(=O)N1CCCC(Nc2nc(Nc3ccc(C(N)=O)cc3)nc3[nH]ccc23)C1 (stereo not drawn) [drawing 212] | 
< 6.00 | 6.00 to 7.00 | < 6.00 | NC(=O)c1c[nH]c2nc(Nc3ccc4c(c3)CCC(=O)N4)nc(NC3CC3)c12 [drawing 211] | 
